Values joined by “and” are separate entries in the source; they are usually repeats but may differ in a detail not shown here. Equal entries are not always repeated. ± gives the expanded uncertainty stated by the source.
Assays:
[1] = Crystal; for molar entropy / mass density: 101.33 kPa; for molar entropy: Small (less than 1 g) adiabatic calorimetry; for vapor or sublimation pressure: Calculated from knudsen effusion weight loss
[2] = molar heat capacity at constant pressure; conditions: 101.33 kPa, Crystal, Small (less than 1 g) adiabatic calorimetry

SMILES: C1C2CC3CC1CC(c1nnn[nH]1)(C2)C3 [5-(1-adamantyl)tetrazole]
- molar entropy ([1]; 5 K): 0.1627 ± 0.027 J/K/mol
- molar entropy ([1]; 10 K): 1.359 ± 0.056 J/K/mol
- molar entropy ([1]; 15 K): 4.002 ± 0.12 J/K/mol
- molar entropy ([1]; 20 K): 7.655 ± 0.17 J/K/mol
- molar entropy ([1]; 25 K): 11.89 ± 0.21 J/K/mol
- molar entropy ([1]; 30 K): 16.44 ± 0.25 J/K/mol
- molar entropy ([1]; 35 K): 21.13 ± 0.29 J/K/mol
- molar entropy ([1]; 40 K): 25.84 ± 0.33 J/K/mol
- molar entropy ([1]; 45 K): 30.53 ± 0.37 J/K/mol
- molar entropy ([1]; 50 K): 35.17 ± 0.41 J/K/mol
- molar entropy ([1]; 60 K): 44.22 ± 0.47 J/K/mol
- molar entropy ([1]; 70 K): 52.95 ± 0.55 J/K/mol
- molar entropy ([1]; 80 K): 61.41 ± 0.61 J/K/mol
- molar entropy ([1]; 90 K): 69.64 ± 0.71 J/K/mol
- molar entropy ([1]; 100 K): 77.69 ± 0.77 J/K/mol
- mass density ([1]; 100 K, X-ray diffraction): 1308 ± 6 kg/m3
- molar entropy ([1]; 120 K): 93.37 ± 0.88 J/K/mol
- molar entropy ([1]; 140 K): 108.7 ± 1 J/K/mol
- molar entropy ([1]; 160 K): 123.8 ± 1.1 J/K/mol
- molar entropy ([1]; 180 K): 138.9 ± 1.2 J/K/mol
- molar entropy ([1]; 200 K): 154 ± 1.4 J/K/mol
- molar entropy ([1]; 220 K): 169.4 ± 1.4 J/K/mol
- molar entropy ([1]; 240 K): 185 ± 1.6 J/K/mol
- molar entropy ([1]; 260 K): 200.8 ± 1.7 J/K/mol
- molar entropy ([1]; 280 K): 216.8 ± 1.8 J/K/mol
- mass density ([1]; 292.15 K, Pycnometric method): 1470 ± 180 kg/m3
- molar entropy ([1]; 298.15 K): 231.5 ± 1.9 J/K/mol
- molar entropy ([1]; 300 K): 232.9 ± 1.9 J/K/mol
- molar entropy ([1]; 320 K): 249 ± 2 J/K/mol
- molar entropy ([1]; 340 K): 265 ± 2.1 J/K/mol
- molar entropy ([1]; 360 K): 281 ± 2.3 J/K/mol
- molar entropy ([1]; 370 K): 289 ± 2.3 J/K/mol
- vapor or sublimation pressure ([1]; 393.68 K): 5.34e-05 ± 3.3e-06 kPa
- vapor or sublimation pressure ([1]; 398.71 K): 8.43e-05 ± 5.2e-06 kPa and 8.47e-05 ± 5.3e-06 kPa
- vapor or sublimation pressure ([1]; 403.71 K): 0.0001344 ± 8.3e-06 kPa
- vapor or sublimation pressure ([1]; 403.72 K): 0.0001377 ± 8.5e-06 kPa
- vapor or sublimation pressure ([1]; 403.74 K): 0.0001377 ± 8.5e-06 kPa
- vapor or sublimation pressure ([1]; 408.72 K): 0.0002136 ± 1.3e-05 kPa and 0.0002121 ± 1.3e-05 kPa
- vapor or sublimation pressure ([1]; 408.74 K): 0.0002167 ± 1.3e-05 kPa
- vapor or sublimation pressure ([1]; 413.74 K): 0.0003204 ± 2e-05 kPa
- vapor or sublimation pressure ([1]; 413.75 K): 0.0003212 ± 2e-05 kPa
- vapor or sublimation pressure ([1]; 413.76 K): 0.0003363 ± 2.1e-05 kPa
- vapor or sublimation pressure ([1]; 418.74 K): 0.0005125 ± 3.2e-05 kPa
- vapor or sublimation pressure ([1]; 418.77 K): 0.0005047 ± 3.1e-05 kPa
- vapor or sublimation pressure ([1]; 418.8 K): 0.000516 ± 3.2e-05 kPa
- Normal melting temperature ([1]; visual observation): 251.00 ± 2 °C
- molar heat capacity at constant pressure ([2]; 5 K): 0.4912 ± 0.026 J/K/mol
- molar heat capacity at constant pressure ([2]; 10 K): 3.942 ± 0.085 J/K/mol
- molar heat capacity at constant pressure ([2]; 15 K): 9.695 ± 0.14 J/K/mol
- molar heat capacity at constant pressure ([2]; 20 K): 16.01 ± 0.17 J/K/mol
- molar heat capacity at constant pressure ([2]; 25 K): 22.15 ± 0.19 J/K/mol
- molar heat capacity at constant pressure ([2]; 30 K): 27.84 ± 0.2 J/K/mol
- molar heat capacity at constant pressure ([2]; 35 K): 32.99 ± 0.23 J/K/mol
- molar heat capacity at constant pressure ([2]; 40 K): 37.67 ± 0.25 J/K/mol
- molar heat capacity at constant pressure ([2]; 45 K): 42 ± 0.28 J/K/mol
- molar heat capacity at constant pressure ([2]; 50 K): 46.01 ± 0.3 J/K/mol
- molar heat capacity at constant pressure ([2]; 60 K): 53.34 ± 0.33 J/K/mol
- molar heat capacity at constant pressure ([2]; 70 K): 60.13 ± 0.37 J/K/mol
- molar heat capacity at constant pressure ([2]; 80 K): 66.67 ± 0.41 J/K/mol
- molar heat capacity at constant pressure ([2]; 90 K): 73.18 ± 0.45 J/K/mol
- molar heat capacity at constant pressure ([2]; 100 K): 79.7 ± 0.49 J/K/mol
- molar heat capacity at constant pressure ([2]; 120 K): 92.76 ± 0.55 J/K/mol
- molar heat capacity at constant pressure ([2]; 140 K): 106.3 ± 0.6 J/K/mol
- molar heat capacity at constant pressure ([2]; 160 K): 120.6 ± 0.7 J/K/mol
- molar heat capacity at constant pressure ([2]; 180 K): 136 ± 0.7 J/K/mol
- molar heat capacity at constant pressure ([2]; 200 K): 152.5 ± 0.8 J/K/mol
- molar heat capacity at constant pressure ([2]; 220 K): 170 ± 0.9 J/K/mol
- molar heat capacity at constant pressure ([2]; 240 K): 188.4 ± 1 J/K/mol
- molar heat capacity at constant pressure ([2]; 260 K): 207.4 ± 1.1 J/K/mol
- molar heat capacity at constant pressure ([2]; 280 K): 225.3 ± 1.2 J/K/mol
- molar heat capacity at constant pressure ([2]; 298.15 K): 240 ± 1.3 J/K/mol
- molar heat capacity at constant pressure ([2]; 300 K): 241.6 ± 1.3 J/K/mol
- molar heat capacity at constant pressure ([2]; 320 K): 256.9 ± 1.3 J/K/mol
- molar heat capacity at constant pressure ([2]; 340 K): 272 ± 1.4 J/K/mol
- molar heat capacity at constant pressure ([2]; 360 K): 287.6 ± 1.5 J/K/mol
- molar heat capacity at constant pressure ([2]; 370 K): 295.6 ± 1.5 J/K/mol
